{
  "source": "PubChem BioAssay (NCI)",
  "assay_in_all_cases": "NCI tumour cell line growth inhibition, 48 h",
  "key": {"TK-10 renal": {"system": "TK-10 renal"}, "UACC-257 melanoma": {"system": "UACC-257 melanoma"}, "786-0 renal": {"system": "786-0 renal"}, "SK-MEL-2 melanoma": {"system": "SK-MEL-2 melanoma"}, "RXF 393 renal": {"system": "RXF 393 renal"}, "COLO 205 colon": {"system": "COLO 205 colon"}, "MALME-3M melanoma": {"system": "MALME-3M melanoma"}, "KM20L2 colon": {"system": "KM20L2 colon"}, "HS 578T breast": {"system": "HS 578T breast"}, "SK-OV-3 ovarian": {"system": "SK-OV-3 ovarian"}, "DMS 273 small cell lung": {"system": "DMS 273 small cell lung"}},
  "note": "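Grown in 96-well plates, cells were treated for 48 hours with each compound at five concentrations. Insufficient inhibition: endpoint recorded as highest concentration tested. At the TGI there is no net growth.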",
  "data": [
    {"smiles": "CCc1nc2ccc(NCCN(C)C)c3c(=O)c4ccccc4n1c23", "values": [
      {"measurement": "TGI", "setting": "TK-10 renal", "result": 12.2, "unit": "µM"},
      {"measurement": "TGI", "setting": "UACC-257 melanoma", "result": 11.8, "unit": "µM"},
      {"measurement": "TGI", "setting": "786-0 renal", "result": 7.66, "unit": "µM"},
      {"measurement": "TGI", "setting": "SK-MEL-2 melanoma", "result": 6.98, "unit": "µM"},
      {"measurement": "TGI", "setting": "RXF 393 renal", "result": 6.03, "unit": "µM"},
      {"measurement": "TGI", "setting": "COLO 205 colon", "result": 3.44, "unit": "µM"},
      {"measurement": "TGI", "setting": "MALME-3M melanoma", "result": 7.47, "unit": "µM"},
      {"measurement": "TGI", "setting": "KM20L2 colon", "result": 6.31, "unit": "µM"},
      {"measurement": "TGI", "setting": "HS 578T breast", "result": 5.94, "unit": "µM"},
      {"measurement": "TGI", "setting": "SK-OV-3 ovarian", "result": 13.3, "unit": "µM"}
    ]},
    {"smiles": "Cc1ccc2c(c1)C(=O)C(C1OC(=O)c3ccccc31)C2", "note": "(stereo not drawn)", "values": [
      {"measurement": "TGI", "setting": "TK-10 renal", "result": "> 100", "unit": "µM"},
      {"measurement": "TGI", "setting": "UACC-257 melanoma", "result": "> 100", "unit": "µM"},
      {"measurement": "TGI", "setting": "786-0 renal", "result": "> 100", "unit": "µM"},
      {"measurement": "TGI", "setting": "SK-MEL-2 melanoma", "result": "> 100", "unit": "µM"},
      {"measurement": "TGI", "setting": "RXF 393 renal", "result": "> 100", "unit": "µM"},
      {"measurement": "TGI", "setting": "COLO 205 colon", "result": "> 100", "unit": "µM"},
      {"measurement": "TGI", "setting": "MALME-3M melanoma", "result": "> 100", "unit": "µM"},
      {"measurement": "TGI", "setting": "HS 578T breast", "result": "> 100", "unit": "µM"},
      {"measurement": "TGI", "setting": "SK-OV-3 ovarian", "result": "> 100", "unit": "µM"}
    ]},
    {"smiles": "Cn1c(N/N=C/c2ccccc2)nc(-c2ccc([N+](=O)[O-])cc2)c(C#N)c1=O", "values": [
      {"measurement": "TGI", "setting": "TK-10 renal", "result": "> 100", "unit": "µM"},
      {"measurement": "TGI", "setting": "UACC-257 melanoma", "result": "> 100", "unit": "µM"},
      {"measurement": "TGI", "setting": "786-0 renal", "result": "> 100", "unit": "µM"},
      {"measurement": "TGI", "setting": "SK-MEL-2 melanoma", "result": "> 100", "unit": "µM"},
      {"measurement": "TGI", "setting": "RXF 393 renal", "result": "> 100", "unit": "µM"},
      {"measurement": "TGI", "setting": "COLO 205 colon", "result": "> 100", "unit": "µM"},
      {"measurement": "TGI", "setting": "MALME-3M melanoma", "result": "> 100", "unit": "µM"},
      {"measurement": "TGI", "setting": "HS 578T breast", "result": "> 100", "unit": "µM"},
      {"measurement": "TGI", "setting": "SK-OV-3 ovarian", "result": "> 100", "unit": "µM"}
    ]},
    {"smiles": "Cc1c(/C=N/N(C)C)oc2c1cc(O)c1ncccc12", "values": [
      {"measurement": "TGI", "setting": "TK-10 renal", "result": "> 100", "unit": "µM"},
      {"measurement": "TGI", "setting": "UACC-257 melanoma", "result": "> 100", "unit": "µM"},
      {"measurement": "TGI", "setting": "786-0 renal", "result": "> 100", "unit": "µM"},
      {"measurement": "TGI", "setting": "SK-MEL-2 melanoma", "result": 44.5, "unit": "µM"},
      {"measurement": "TGI", "setting": "RXF 393 renal", "result": 58.6, "unit": "µM"},
      {"measurement": "TGI", "setting": "DMS 273 small cell lung", "result": 37.7, "unit": "µM"},
      {"measurement": "TGI", "setting": "COLO 205 colon", "result": "> 100", "unit": "µM"},
      {"measurement": "TGI", "setting": "MALME-3M melanoma", "result": 84.5, "unit": "µM"},
      {"measurement": "TGI", "setting": "KM20L2 colon", "result": "> 100", "unit": "µM"},
      {"measurement": "TGI", "setting": "SK-OV-3 ovarian", "result": 71.7, "unit": "µM"}
    ]},
    {"smiles": "C/C1=C\\C=C(\\C(C)C)CC/C(C(=O)O)=C\\CC/C(C)=C/CC1", "values": [
      {"measurement": "TGI", "setting": "TK-10 renal", "result": "> 100", "unit": "µM"},
      {"measurement": "TGI", "setting": "UACC-257 melanoma", "result": 56.1, "unit": "µM"},
      {"measurement": "TGI", "setting": "786-0 renal", "result": 65.9, "unit": "µM"},
      {"measurement": "TGI", "setting": "SK-MEL-2 melanoma", "result": 32.8, "unit": "µM"},
      {"measurement": "TGI", "setting": "RXF 393 renal", "result": 41.4, "unit": "µM"},
      {"measurement": "TGI", "setting": "COLO 205 colon", "result": 50.6, "unit": "µM"},
      {"measurement": "TGI", "setting": "MALME-3M melanoma", "result": 52.2, "unit": "µM"},
      {"measurement": "TGI", "setting": "HS 578T breast", "result": "> 100", "unit": "µM"},
      {"measurement": "TGI", "setting": "SK-OV-3 ovarian", "result": 64, "unit": "µM"}
    ]},
    {"smiles": "S=C(Nc1ccc2cn[nH]c2c1)Nc1ccc2cn[nH]c2c1", "values": [
      {"measurement": "TGI", "setting": "TK-10 renal", "result": "> 100", "unit": "µM"},
      {"measurement": "TGI", "setting": "UACC-257 melanoma", "result": "> 100", "unit": "µM"},
      {"measurement": "TGI", "setting": "786-0 renal", "result": "> 100", "unit": "µM"},
      {"measurement": "TGI", "setting": "SK-MEL-2 melanoma", "result": "> 100", "unit": "µM"},
      {"measurement": "TGI", "setting": "RXF 393 renal", "result": "> 100", "unit": "µM"},
      {"measurement": "TGI", "setting": "COLO 205 colon", "result": "> 100", "unit": "µM"},
      {"measurement": "TGI", "setting": "MALME-3M melanoma", "result": "> 100", "unit": "µM"},
      {"measurement": "TGI", "setting": "HS 578T breast", "result": "> 100", "unit": "µM"},
      {"measurement": "TGI", "setting": "SK-OV-3 ovarian", "result": "> 100", "unit": "µM"}
    ]},
    {"smiles": "CC(=N\\N)/C(C)=N/N=C(C)/C(C)=N/N=C(C)/C(C)=N/N", "values": [
      {"measurement": "TGI", "setting": "TK-10 renal", "result": "> 100", "unit": "µM"},
      {"measurement": "TGI", "setting": "UACC-257 melanoma", "result": "> 100", "unit": "µM"},
      {"measurement": "TGI", "setting": "786-0 renal", "result": "> 100", "unit": "µM"},
      {"measurement": "TGI", "setting": "SK-MEL-2 melanoma", "result": "> 100", "unit": "µM"},
      {"measurement": "TGI", "setting": "RXF 393 renal", "result": "> 100", "unit": "µM"},
      {"measurement": "TGI", "setting": "COLO 205 colon", "result": "> 100", "unit": "µM"},
      {"measurement": "TGI", "setting": "MALME-3M melanoma", "result": "> 100", "unit": "µM"},
      {"measurement": "TGI", "setting": "HS 578T breast", "result": "> 100", "unit": "µM"},
      {"measurement": "TGI", "setting": "SK-OV-3 ovarian", "result": "> 100", "unit": "µM"}
    ]},
    {"smiles": "CN1c2ccccc2N(C(=O)c2ccccc2)C(CC(=O)O)c2cccn21", "note": "(stereo not drawn)", "values": [
      {"measurement": "TGI", "setting": "TK-10 renal", "result": "> 100", "unit": "µM"},
      {"measurement": "TGI", "setting": "UACC-257 melanoma", "result": "> 100", "unit": "µM"},
      {"measurement": "TGI", "setting": "786-0 renal", "result": "> 100", "unit": "µM"},
      {"measurement": "TGI", "setting": "SK-MEL-2 melanoma", "result": "> 100", "unit": "µM"},
      {"measurement": "TGI", "setting": "RXF 393 renal", "result": "> 100", "unit": "µM"},
      {"measurement": "TGI", "setting": "DMS 273 small cell lung", "result": "> 100", "unit": "µM"},
      {"measurement": "TGI", "setting": "COLO 205 colon", "result": "> 100", "unit": "µM"},
      {"measurement": "TGI", "setting": "MALME-3M melanoma", "result": "> 100", "unit": "µM"},
      {"measurement": "TGI", "setting": "KM20L2 colon", "result": "> 100", "unit": "µM"},
      {"measurement": "TGI", "setting": "SK-OV-3 ovarian", "result": "> 100", "unit": "µM"}
    ]},
    {"smiles": "O=C1Nc2ccccc2/C1=c1\\[nH]c(=O)/c(=C\\c2ccc(OCc3ccccc3)cn2)[nH]c1=O", "values": [
      {"measurement": "TGI", "setting": "TK-10 renal", "result": 50.1, "unit": "µM"},
      {"measurement": "TGI", "setting": "UACC-257 melanoma", "result": "> 100", "unit": "µM"},
      {"measurement": "TGI", "setting": "786-0 renal", "result": "> 100", "unit": "µM"},
      {"measurement": "TGI", "setting": "SK-MEL-2 melanoma", "result": "> 100", "unit": "µM"},
      {"measurement": "TGI", "setting": "RXF 393 renal", "result": 34.9, "unit": "µM"},
      {"measurement": "TGI", "setting": "COLO 205 colon", "result": "> 100", "unit": "µM"},
      {"measurement": "TGI", "setting": "MALME-3M melanoma", "result": "> 100", "unit": "µM"},
      {"measurement": "TGI", "setting": "HS 578T breast", "result": 70.1, "unit": "µM"},
      {"measurement": "TGI", "setting": "SK-OV-3 ovarian", "result": "> 100", "unit": "µM"}
    ]},
    {"smiles": "CC(=O)Oc1ccc(/C=C/C(=O)O[C@@H](C(=O)O)[C@@H](OC(=O)/C=C/c2ccc(OC(C)=O)c(OC(C)=O)c2)C(=O)O)cc1OC(C)=O", "values": [
      {"measurement": "TGI", "setting": "TK-10 renal", "result": "> 100", "unit": "µM"},
      {"measurement": "TGI", "setting": "UACC-257 melanoma", "result": "> 100", "unit": "µM"},
      {"measurement": "TGI", "setting": "786-0 renal", "result": "> 100", "unit": "µM"},
      {"measurement": "TGI", "setting": "SK-MEL-2 melanoma", "result": "> 100", "unit": "µM"},
      {"measurement": "TGI", "setting": "RXF 393 renal", "result": "> 100", "unit": "µM"},
      {"measurement": "TGI", "setting": "COLO 205 colon", "result": "> 100", "unit": "µM"},
      {"measurement": "TGI", "setting": "MALME-3M melanoma", "result": "> 100", "unit": "µM"},
      {"measurement": "TGI", "setting": "HS 578T breast", "result": "> 100", "unit": "µM"},
      {"measurement": "TGI", "setting": "SK-OV-3 ovarian", "result": "> 100", "unit": "µM"}
    ]}
  ]
}
